In patent publication US11708344B2, “Flavone derivatives for the treatment and prophylaxis of hepatitis B virus disease” (Hoffmann-La Roche Inc., priority 2018, dated 2023):
Where two headings read alike, the source gives them in different places.

Tests used:
[1] = tested on: HBeAg (surrogate marker for cccDNA) in HepDES19 cells; test: Engineered HepDES19 primary screen assay (HBeAg ELISA); format: cell-based, HBV
Excerpt: The assay was employed to screen for novel cccDNA inhibitors. HepDES19 is a cccDNA-producing cell line. In this cell line, HBeAg in the cell culture supernatant as surrogate marker, as HBeAg production depends on cccDNA level and activity. HepDES19 is an engineered cell line which contains a 1.1 unit length HBV genome, and pgRNA transcription from the transgene is controlled by Tetracycline (Tet). In the absence of Tet, pgRNA transcription will be induced, but HBV e antigen (HBeAg) could not be produced from this pgRNA due to very short leader sequence before the HBeAg start codon and the start codon is disrupted. Only after cccDNA is formed, the missing leader sequence and start codon mutation would be restored from the 3′-terminal redundancy of pgRNA, and then HBeAg could be synthesized. Therefore, HBeAg could be used as a surrogate marker for cccDNA (Zhou, T. et al., Antiviral Res. (2006), 72(2), 116-124; Guo, H. et al., J. Virol. (2007), 81(22), 12472-12484).
HepDES19 cells were seeded at 2×10^6 cells per T150 flask and cultured with the culture medium (Dulbecco's Modified Eagle Medium: Nutrient Mixture F-12 [DMEM-F12, Gibco Cat. 11320-82], 10% Fetal Bovine Serum [FBS, Clontech Cat. 631101], 0.1 mM Non-Essential Amino Acids Solution [NEAA, Gibco Cat. 11140-050], 50 μg/mL Penicillin-Streptomycin [PS, Invitrogen Cat. 15140-163], 500 μg/mL Geneticin [G418, Invitrogen Cat. 10131-027]) containing 3 μg/mL Tet (Sigma, Cat. 87128) for 5 days. Cells were then seeded at 4×10^6 cells per T150 in the same culture medium as described above in the absence of Tet for 8 days. Cells were then harvested and frozen at density of 2×10^6 cells per mL. For compound testing, the frozen cells were thawed and seeded into 96-well plates at a density of 6×10^4 cells per well. At 24 hours after seeding, half log serial dilutions of compounds made with Dimethyl sulfoxide (DMSO, Sigma, Cat. D2650) were further diluted with the same culture medium as described above before they were added to the cells to reach desired final compound concentrations and 1% DMSO concentration. Plates were then incubated at 37° C. for another 5 days before measurement of HBeAg level and cell viability. […] HBeAg level were measured with enzyme-linked immunosorbent assay (ELISA) kit (Shanghai Kehua Diagnostic Medical Products Co., Ltd). Cell viability was assessed using Cell Counting Kit-8 (DonJindo, Cat. CK04-20). IC50 values were derived from the dose-response curve using 4 parameter logistic curve fit method.
The compounds of the present invention were tested for their capacity to inhibit extracellular HBeAg level as described herein.

[2] = Human microsome stability assay; format: in vitro ADME; details: human liver microsomes, 1 μM test compound, 0.5 mg/mL microsomal protein, 37° C., pH 7.4, 0-30 minutes
Method: The human microsomal stability assay is used for early assessment of metabolic stability of a test compound in human liver microsomes.
Human liver microsomes (Cat. NO.: 452117, Corning, USA; Cat. NO.: H2610, Xenotech, USA) were preincubated with test compound for 10 minutes at 37° C. in 100 mM potassium phosphate buffer, pH 7.4. The reactions were initiated by adding NADPH regenerating system. The final incubation mixtures contained 1 μM test compound, 0.5 mg/mL liver microsomal protein, 1 mM MgCl2, 1 mM NADP, 1 unit/mL isocitric dehydrogenase and 6 mM isocitric acid in 100 mM potassium phosphate buffer, pH 7.4. After incubation times of 0, 3, 6, 9, 15 and 30 minutes at 37° C., 300 μL of cold ACN (including internal standard) was added to 100 μL incubation mixture to terminate the reaction. Following precipitation and centrifugation, the amount of compound remaining in the samples was determined by LC-MS/MS. Controls of no NADPH regenerating system at zero and 30 minutes were also prepared and analyzed.

[3] = Hepatitis B virus, HepDES19, 120 h, read-out: IC50 (HBeAg level, HepDES19 primary screen assay), HepDES19 cells, 5 days compound incubation, HBeAg ELISA

SMILES | IC50 [1, 3] [nM] | Clearance of Human microsome [2] [mL/min/kg] | IC50 ([1]; read-out: IC50 (HBeAg level, HepDES19 primary screen assay), HepDES19 cells, 5 days compound incubation, HBeAg ELISA) [nM]
O=C(O)[C@@H]1CC[C@@H](Oc2cc(Br)ccc2-c2cc(=O)c3cccc(Cl)c3o2)C1 (relative stereo) [Example B028-B, Trans-3-[5-bromo-2-(8-chloro-4-oxo-chromen-2-yl)phenoxy]cyclopentanecarboxylic acid] | 213 | 9.98 | –
O=C(O)C1CCCN1C(=O)COc1cc(C(F)(F)F)ccc1-c1cc(=O)c2cccc(Cl)c2o1 (stereo in doubt) [Example A082, (2S)-1-[2-[2-(8-chloro-4-oxo-chromen-2-yl)-5-(trifluoromethyl)phenoxy]acetyl]pyrrolidine-2-carboxylic acid] | – | 6.15 | 1190
O=C(O)C1CC(OCCOc2ccccc2-c2cc(=O)c3cccc(Br)c3o2)C1 (stereo in doubt) [Example C046-A, Cis-3-[2-[2-(8-bromo-4-oxo-chromen-2-yl)phenoxy]ethoxy]cyclobutanecarboxylic acid] | 192 | 6.15 | –
O=C(O)CCOc1cc(C(F)(F)F)ccc1-c1cc(=O)c2cc(F)cc(Cl)c2o1 [Example A003, 3-[2-(8-chloro-6-fluoro-4-oxo-chromen-2-yl)-5-(trifluoromethyl)phenoxy]propanoic acid] | 362 | 6.15 | –
COc1cc(-c2cc(=O)c3cccc(Cl)c3o2)c(OCCC(=O)O)cc1C [Example A015, 3-[2-(8-chloro-4-oxo-chromen-2-yl)-4-methoxy-5-methyl-phenoxy]propanoic acid] | 11100 | 6.15 | –
Cc1cc(Br)c(OCCC(=O)O)c(-c2cc(=O)c3cccc(Cl)c3o2)c1 [Example A018, 3-[2-bromo-6-(8-chloro-4-oxo-chromen-2-yl)-4-methyl-phenoxy]propanoic acid] | 3320 | 6.15 | –
Cc1cc(OCCC(=O)O)c(-c2cc(=O)c3cccc(Cl)c3o2)cc1OC(F)(F)F [Example A019, 3-[2-(8-chloro-4-oxo-chromen-2-yl)-5-methyl-4-(trifluoromethoxy)phenoxy]propanoic acid] | 2960 | 6.15 | –
Cc1cc(F)c(-c2cc(=O)c3cccc(Cl)c3o2)c(OCCC(=O)O)c1 [Example A021, 3-[2-(8-chloro-4-oxo-chromen-2-yl)-3-fluoro-5-methyl-phenoxy]propanoic acid] | 4040 | 6.15 | –
O=C(O)CCOc1cc(C(F)(F)F)ccc1-c1cc(=O)c2ccc(F)c(Cl)c2o1 [Example A031, 3-[2-(8-chloro-7-fluoro-4-oxo-chromen-2-yl)-5-(trifluoromethyl)phenoxy]propanoic acid] | 377 | 6.15 | –
COc1ccc2c(=O)cc(-c3ccc(C(F)(F)F)cc3OCCC(=O)O)oc2c1Cl [Example A032, 3-[2-(8-chloro-7-methoxy-4-oxo-chromen-2-yl)-5-(trifluoromethyl)phenoxy]propanoic acid] | 13000 | 6.15 | –
COc1cc(Cl)c2oc(-c3ccc(C(F)(F)F)cc3OCCC(=O)O)cc(=O)c2c1 [Example A033, 3-[2-(8-chloro-6-methoxy-4-oxo-chromen-2-yl)-5-(trifluoromethyl)phenoxy]propanoic acid] | 479 | 6.15 | –
Cc1c(-c2ccc(C(F)(F)F)cc2OCCC(=O)O)oc2c(Cl)cccc2c1=O [Example A034, 3-[2-(8-chloro-3-methyl-4-oxo-chromen-2-yl)-5-(trifluoromethyl)phenoxy]propanoic acid] | 13400 | 6.15 | –
COc1cc(-c2cc(=O)c3cccc(Cl)c3o2)c(OCCC(=O)O)cc1OCC(F)(F)F [Example A041, 3-[2-(8-chloro-4-oxo-chromen-2-yl)-4-methoxy-5-(2,2,2-trifluoroethoxy)phenoxy]propanoic acid] | 6060 | 6.15 | –
O=C(O)CCOc1cc(OC(F)(F)F)ccc1-c1cc(=O)c2ccc(C(F)(F)F)c(Cl)c2o1 [Example A042, 3-[2-[8-chloro-4-oxo-7-(trifluoromethyl)chromen-2-yl]-5-(trifluoromethoxy)phenoxy]propanoic acid] | 17800 | 6.15 | –
O=C(O)CCOc1cc(C(F)(F)F)ccc1-c1oc2c(Cl)cccc2c(=O)c1O [Example A046, 3-[2-(8-chloro-3-hydroxy-4-oxo-chromen-2-yl)-5-(trifluoromethyl)phenoxy]propanoic acid] | 7860 | 6.15 | –
Cc1cc(-c2cc(=O)c3cccc(Cl)c3o2)c(OCC(=O)O)cc1Br [Example A073, 2-[5-bromo-2-(8-chloro-4-oxo-chromen-2-yl)-4-methyl-phenoxy]acetic acid] | – | 6.15 | –
O=C(O)C1CCC(OCCOc2cc(Br)ccc2-c2cc(=O)c3cccc(Cl)c3o2)C1 (stereo not shown) [Example C106, 3-[2-[5-bromo-2-(8-chloro-4-oxo-chromen-2-yl)phenoxy]ethoxy]cyclopentanecarboxylic acid] | 2100 | – | –
O=C(O)c1ccc(OCCOc2cc(Br)ccc2-c2cc(=O)c3cccc(Cl)c3o2)cc1 [Example C107, 4-[2-[5-bromo-2-(8-chloro-4-oxo-chromen-2-yl)phenoxy]ethoxy]benzoic acid] | 991 | – | –
O=C(O)c1cccc(OCCOc2cc(Br)ccc2-c2cc(=O)c3cccc(Cl)c3o2)c1 [Example C108, 3-[2-[5-bromo-2-(8-chloro-4-oxo-chromen-2-yl)phenoxy]ethoxy]benzoic acid] | 1250 | – | –
CC(C)(OCCCOc1cc(C(F)(F)F)ccc1-c1cc(=O)c2cccc(Cl)c2o1)C(=O)O [Example C109, 2-[3-[2-(8-chloro-4-oxo-chromen-2-yl)-5-(trifluoromethyl)phenoxy]propoxy]-2-methyl-propanoic acid] | 995 | – | –
CS(=O)(=O)NC(=O)[C@H]1C[C@H](OCCOc2cc(Br)ccc2-c2cc(=O)c3cccc(Cl)c3o2)C1 [Example C123, Trans-3-[2-[5-bromo-2-(8-chloro-4-oxo-chromen-2-yl)phenoxy]ethoxy]-N-methylsulfonyl-cyclobutanecarboxamide] | 6530 | – | –
CS(=O)(=O)NC(=O)C1CCC(OCCCOc2cc(C(F)(F)F)ccc2-c2cc(=O)c3cccc(Cl)c3o2)C1 (stereo not shown) [Example C124, 3-[3-[2-(8-chloro-4-oxo-chromen-2-yl)-5-(trifluoromethyl)phenoxy]propoxy]-N-methylsulfonyl-cyclopentanecarboxamide] | 2840 | – | –
O=C(COCCOc1cc(Br)ccc1-c1cc(=O)c2cccc(Cl)c2o1)N1CCC(O)C1 (stereo not shown) [Example C126, 2-[4-bromo-2-[2-[2-(3-hydroxypyrrolidin-1-yl)-2-oxo-ethoxy]ethoxy]phenyl]-8-chloro-chromen-4-one] | 4400 | – | –
O=c1cc(-c2ccccc2O)oc2cc(O)ccc12 [Example F-1, 7-hydroxy-2-(2-hydroxyphenyl)chromen-4-one, reference compound] | > 50000 | – | –
COc1ccc2oc(-c3ccccc3OC)cc(=O)c2c1 [Example F-2, 6-methoxy-2-(2-methoxyphenyl)chromen-4-one, reference compound] | > 50000 | – | –
